According to US20260138970A1, “MODULATORS OF THE CALCIUM SIGNALING CASCADE” (FONDAZIONE TELETHON ETS, priority 2022, published 2026):

Columns and labels:
Assay type in all cases: cell-based
[1] = tested on: TMEM16A; experiment: Short-circuit current recordings on FRT epithelia with stable expression of TMEM16A; conditions: compounds 10 μM; UTP 0.25 μM apical; vs vehicle; FIG. 1C
Protocol: Snapwell supports (3801, Corning) carrying FRT and differentiated HBEC epithelia were mounted in a vertical chamber resembling an Ussing system with internal fluid circulation (EM-CSYS-8, Physiologic Instruments, San Diego, CA, USA). For FRT epithelia, the apical and basolateral hemichambers were filled with solutions of different composition. The apical solution (5 ml) contained (in mM): 63 NaCl, 63 sodium gluconate, 0.38 KH2PO4, 2.13 K2HPO4, 2 CaCl2, 1 MgSO4, 20 Na-Hepes (pH 7.3), and 10 glucose. The basolateral solution (5 ml) instead contained (in mM): 126 KCl, 0.38 KH2PO4, 2.13 K2HPO4, 1 CaCl2, 1 MgSO4, 20 Na-Hepes (pH 7.3), and 10 glucose. Both solutions were continuously bubbled with air and the temperature of the solution was kept at 37° C. For HBECs, the same (bicarbonate-buffered) solution was used in both chambers. The composition of this solution was (in mM): 126 NaCl, 0.38 KH2PO4, 2.13 K2HPO4, 1 MgSO4, 1 CaCl2), 24 NaHCO3, and 10 glucose. Both sides were continuously bubbled with a gas mixture containing 5% CO2 and 95% air. The temperature of the solution was kept at 37° C. throughout the experiment.
Transepithelial voltage was short-circuited with a voltage-clamp (VCC MC8, Physiologic Instruments, San Diego, CA, USA) connected to the apical and basolateral chambers via Ag—AgCl electrodes and agar bridges (2% agar in 1 M KCl). The offset between voltage electrodes and the fluid resistance were cancelled before experiments. The resulting short-circuited current from each channel was recorded on a personal computer with the Acquire & Analize 2.3 software (Physiologic Instruments, San Diego, CA, USA).

[2] = tested on: TMEM16A; experiment: HS-YFP assay in FRT cells co-expressing TMEM16A and HS-YFP; conditions: for potentiation of the effect of UTP on TMEM16A: primary screening and secondary tests, compounds 10 μM
Protocol: Experiments were performed using an automated microplate reader (FLUOstar Omega, BMG Labtech, Offenburg, Germany) equipped with syringe pumps and optical excitation/emission filters optimized for yellow fluorescent protein (YFP) fluorescence (ET500/20× and ET535/30m, respectively; Chroma Technology Corporation). FRT cells with co-expression of TMEM16A and HS-YFP were plated at high density in black wall/clear bottom 96-well microplates (3603, Corning). Each well in microplates was washed 3 times with 150 μl of phosphate-buffered saline (PBS). After washing, each well received 60 μl of PBS containing test compounds at 10 μM final concentration, or TMEM16A inhibitor Ani9 (15) (10 μM), or vehicle. After 20 min of incubation at 37° C., microplates were transferred to the plate reader for fluorescence assay. Each well was assayed individually for TMEM16A-mediated I^− influx by sampling cell fluorescence every 200 ms for 14 s. Two seconds after the start of reading, 165 μl of a modified PBS containing 137 mM KI, instead of NaCl, plus UTP 0.25 μM were automatically added by the reader. K^+ was used in the injected solution to prevent changes of membrane potential due to altered activity of Ca^2+-activated K^+ channels. The fluorescence trace in each well was corrected by background subtraction and then normalized for the initial value measured before I^− addition (F0). The cumulative fluorescence quenching (CFQ) in the time interval between 3 and 13.8 s (representing integration of TMEM16A-dependent I^− influx) was quantified using a procedure compiled in Microsoft Excel according to the formula
For the screening, FRT cells were plated at high density in 96-well microplates. After 48 h, TMEM16A activity was evaluated in a microplate reader by injection in each well of a saline solution containing I^− instead of Cl^− and a submaximal (0.25 μM) UTP concentration (FIG. 1A). Upon injection, UTP triggers Ca^2+ mobilization and TMEM16A activation. The resulting TMEM16A-dependent I^− influx causes HS-YFP quenching. The presence in the well of a small molecule that potentiates TMEM16A activity, in a direct or indirect way, is therefore expected to enhance the rate of HS-YFP quenching.

[3] = target: T1, R269W ITPR1 (Homo sapiens, UniProt Q14643, R269W); experiment: Fluo-4 Ca2+ assay, UTP, HEK293 cells with inducible R269W ITPR1; conditions: UTP 5 μM; compound 10 μM; tetracycline-induced; FIG. 6B-C
T1 construct: expressed in transfected cells
Protocol: HEK293 cells stably transfected with tetracycline-inducible expression of wild type or mutant (R269W or T267M) ITPR1, kindly provided by Prof. S. R. Wayne Chen (University of Calgary; ref. 14), were cultured in a mixture of Dulbecco's Modified Eagle Medium (DMEM, high glucose version) and Ham's F12 (1:1) and supplemented with 10% fetal bovine serum, 2 mM L-glutamine, 100 U/ml penicillin and 100 μg/ml streptomycin. Cells were selected with 0.5 mg/ml hygromycin B and induced with 1 μg/ml tetracycline.
Experiments were performed using the microplate reader described for the HS-YFP assay. FRT and HEK293 cells were cultured until confluence in 96-well microplates (3603, Corning). Cells were washed 2 times with PBS (150 μl/wash) and then loaded for 1 h at 37° C. with 5 μM Fluo-4/AM (Thermo Fisher Scientific; catalog number: F23917) in PBS containing 10 mM glucose, 0.5 mM sulfinpyrazone, and 1% fetal bovine serum. After loading, cells were washed 2 times with PBS-glucose-sulfinpyrazone (150 μl/wash) and incubated for 20 min at 37° C. with 60 μl of PBS plus 10 mM glucose and 0.5 mM sulfinpyrazone containing compounds of interest at 10 μM final concentration or vehicle. Each well was assayed individually. Fluo-4 fluorescence (500 nm excitation, 535 nm emission) was detected every 200 ms for 16-40 s. Two seconds after the start of fluorescence recording, the reader automatically injected 165 μl of a modified PBS containing 136 mM KCl instead of NaCl. This solution also contained 10 mM glucose, 0.5 mM sulfinpyrazone, and UTP or SLIGR-NH2 (CAS #171436-38-7) at a final concentration that depended on the specific cell type. For UTP we used: 0.25 μM for FRT; 1 μM for HEKR2; 5 μM for HEK3XKO, HEKR1, and HEKR3. For SLIGR-NH2 we used: 10 μM for HEKR1; 4 μM for HEKR2. These concentrations were chosen to elicit ˜20% of maximal effect based on UTP and SLIGR-NH2 dose-response relationships. […] The Fluo-4 fluorescence increase was quantified using a procedure compiled in Microsoft Excel after background subtraction and normalization for the initial value measured before UTP addition.

[4] = tested on: protease-activated receptors; experiment: Fluo-4 Ca2+ assay, SLIGR-NH2 stimulus, HEKR1 cells; conditions: SLIGR-NH2 10 μM; compounds 10 μM; FIG. 5C top
Protocol: Experiments were performed using the microplate reader described for the HS-YFP assay. FRT and HEK293 cells were cultured until confluence in 96-well microplates (3603, Corning). Cells were washed 2 times with PBS (150 μl/wash) and then loaded for 1 h at 37° C. with 5 μM Fluo-4/AM (Thermo Fisher Scientific; catalog number: F23917) in PBS containing 10 mM glucose, 0.5 mM sulfinpyrazone, and 1% fetal bovine serum. After loading, cells were washed 2 times with PBS-glucose-sulfinpyrazone (150 μl/wash) and incubated for 20 min at 37° C. with 60 μl of PBS plus 10 mM glucose and 0.5 mM sulfinpyrazone containing compounds of interest at 10 μM final concentration or vehicle. Each well was assayed individually. Fluo-4 fluorescence (500 nm excitation, 535 nm emission) was detected every 200 ms for 16-40 s. Two seconds after the start of fluorescence recording, the reader automatically injected 165 μl of a modified PBS containing 136 mM KCl instead of NaCl. This solution also contained 10 mM glucose, 0.5 mM sulfinpyrazone, and UTP or SLIGR-NH2 (CAS #171436-38-7) at a final concentration that depended on the specific cell type. For UTP we used: 0.25 μM for FRT; 1 μM for HEKR2; 5 μM for HEK3XKO, HEKR1, and HEKR3. For SLIGR-NH2 we used: 10 μM for HEKR1; 4 μM for HEKR2. These concentrations were chosen to elicit ˜20% of maximal effect based on UTP and SLIGR-NH2 dose-response relationships. The lower agonist concentrations used for HEKR2 cells, compared to HEKR1 cells, are consistent with the higher affinity of ITPR2 for IP3 (16). The Fluo-4 fluorescence increase was quantified using a procedure compiled in Microsoft Excel after background subtraction and normalization for the initial value measured before UTP addition.

[5] = FRT cells expressing TMEM16A, UTP 0.25 μM, FIG. 1D

T1 sequence (Q14643 whole entry R269W): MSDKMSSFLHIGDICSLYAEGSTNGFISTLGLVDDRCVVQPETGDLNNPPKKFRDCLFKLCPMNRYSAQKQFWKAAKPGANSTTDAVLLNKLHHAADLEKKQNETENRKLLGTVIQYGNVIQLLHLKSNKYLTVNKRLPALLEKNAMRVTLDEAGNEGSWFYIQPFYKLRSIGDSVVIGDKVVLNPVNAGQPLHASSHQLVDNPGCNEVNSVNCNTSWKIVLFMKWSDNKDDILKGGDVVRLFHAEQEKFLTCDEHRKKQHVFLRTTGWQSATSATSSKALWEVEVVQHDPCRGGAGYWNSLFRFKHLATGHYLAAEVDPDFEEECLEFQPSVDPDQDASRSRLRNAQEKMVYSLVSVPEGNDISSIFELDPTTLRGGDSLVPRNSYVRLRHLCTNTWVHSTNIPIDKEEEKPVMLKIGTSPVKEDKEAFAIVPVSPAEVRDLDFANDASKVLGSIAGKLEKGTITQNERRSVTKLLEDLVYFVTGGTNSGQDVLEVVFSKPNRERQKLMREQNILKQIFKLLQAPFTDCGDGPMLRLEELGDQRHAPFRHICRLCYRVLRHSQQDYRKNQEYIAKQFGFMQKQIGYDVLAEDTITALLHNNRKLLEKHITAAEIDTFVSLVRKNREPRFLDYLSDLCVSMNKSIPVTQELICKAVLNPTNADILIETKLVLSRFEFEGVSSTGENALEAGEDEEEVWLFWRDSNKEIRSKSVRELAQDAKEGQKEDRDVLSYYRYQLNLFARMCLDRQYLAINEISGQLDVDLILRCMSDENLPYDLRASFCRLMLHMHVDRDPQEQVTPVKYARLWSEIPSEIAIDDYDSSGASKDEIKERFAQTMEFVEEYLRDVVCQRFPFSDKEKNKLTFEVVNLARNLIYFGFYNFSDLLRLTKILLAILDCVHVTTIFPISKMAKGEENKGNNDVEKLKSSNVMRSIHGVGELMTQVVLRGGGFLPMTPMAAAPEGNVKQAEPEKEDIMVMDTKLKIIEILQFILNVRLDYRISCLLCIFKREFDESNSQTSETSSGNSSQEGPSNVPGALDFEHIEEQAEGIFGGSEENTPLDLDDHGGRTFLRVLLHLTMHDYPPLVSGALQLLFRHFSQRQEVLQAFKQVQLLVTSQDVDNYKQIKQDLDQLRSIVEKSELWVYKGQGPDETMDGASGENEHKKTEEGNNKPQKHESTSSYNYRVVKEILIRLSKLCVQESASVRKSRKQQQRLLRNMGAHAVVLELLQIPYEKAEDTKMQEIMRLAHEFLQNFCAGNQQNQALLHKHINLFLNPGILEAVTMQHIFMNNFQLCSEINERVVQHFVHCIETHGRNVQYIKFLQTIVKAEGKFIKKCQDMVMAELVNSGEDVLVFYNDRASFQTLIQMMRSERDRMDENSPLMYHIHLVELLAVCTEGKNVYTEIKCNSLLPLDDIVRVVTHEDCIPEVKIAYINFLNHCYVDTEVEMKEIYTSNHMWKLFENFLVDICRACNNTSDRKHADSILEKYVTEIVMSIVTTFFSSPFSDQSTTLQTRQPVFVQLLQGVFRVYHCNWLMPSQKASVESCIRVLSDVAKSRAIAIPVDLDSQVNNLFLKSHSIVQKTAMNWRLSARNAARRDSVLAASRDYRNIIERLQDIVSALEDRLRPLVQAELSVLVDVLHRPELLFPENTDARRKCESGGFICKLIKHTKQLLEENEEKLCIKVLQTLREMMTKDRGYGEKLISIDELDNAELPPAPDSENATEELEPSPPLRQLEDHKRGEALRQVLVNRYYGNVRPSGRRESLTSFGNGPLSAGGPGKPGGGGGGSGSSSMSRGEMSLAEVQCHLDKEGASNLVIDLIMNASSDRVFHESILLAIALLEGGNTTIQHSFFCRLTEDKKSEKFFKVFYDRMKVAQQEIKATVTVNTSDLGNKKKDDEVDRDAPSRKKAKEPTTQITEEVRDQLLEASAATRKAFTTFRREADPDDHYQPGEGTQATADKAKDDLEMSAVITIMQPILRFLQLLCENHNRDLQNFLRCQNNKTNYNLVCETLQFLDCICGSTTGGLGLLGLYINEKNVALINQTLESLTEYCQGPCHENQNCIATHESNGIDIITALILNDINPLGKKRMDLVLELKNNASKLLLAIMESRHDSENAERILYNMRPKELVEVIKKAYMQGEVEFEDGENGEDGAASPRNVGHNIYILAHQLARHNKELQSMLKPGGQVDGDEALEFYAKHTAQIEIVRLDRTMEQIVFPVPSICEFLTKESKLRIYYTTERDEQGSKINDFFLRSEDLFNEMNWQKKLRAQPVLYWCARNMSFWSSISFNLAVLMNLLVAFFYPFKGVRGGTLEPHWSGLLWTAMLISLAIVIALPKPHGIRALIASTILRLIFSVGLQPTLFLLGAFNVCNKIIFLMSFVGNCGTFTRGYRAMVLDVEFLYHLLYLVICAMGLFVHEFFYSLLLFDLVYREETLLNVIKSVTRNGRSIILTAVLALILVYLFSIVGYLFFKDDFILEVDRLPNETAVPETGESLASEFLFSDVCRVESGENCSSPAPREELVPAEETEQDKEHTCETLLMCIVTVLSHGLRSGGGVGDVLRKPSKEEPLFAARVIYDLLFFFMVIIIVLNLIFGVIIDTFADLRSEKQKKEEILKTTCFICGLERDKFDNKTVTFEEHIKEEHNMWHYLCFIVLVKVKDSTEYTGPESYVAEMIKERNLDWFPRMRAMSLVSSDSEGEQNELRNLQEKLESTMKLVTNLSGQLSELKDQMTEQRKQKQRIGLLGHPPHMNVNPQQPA

CCc1cc(-c2cc(NCCCOc3ccccc3C)nc(N)n2)n(C)n1 [ARN7149, 6-(3-Ethyl-1-methyl-1H-pyrazol-5-yl)-N^4-(3-(o-tolyloxy)propyl)pyrimidine-2,4-diamine]
peak of Cl- current elicited by UTP (short-circuit current) [1]: significantly enhanced
concentrations at which effective / active, dose-response by HS-YFP assay [2, 5]: 5 to 20 µM
shape of dose-response relationship, HS-YFP assay [2, 5]: bell-shaped
potentiation of the effect of UTP on TMEM16A [2]: significantly potentiated
potentiation of Ca2+ mobilization elicited by UTP, R269W mutant [3]: also effective although less than ARN11391
potentiation of SLIGR-NH2 stimulus (Ca2+ mobilization), HEKR1 cells [4]: significant inhibition

CCn1nc2c(c1C(=O)Nc1ccccc1OCC1CCCCO1)CCCC2 (stereo not shown) [ARN11391, 2-Ethyl-N-[2-(tetrahydropyran-2-ylmethoxy)phenyl]-4,5,6,7-tetrahydroindazole-3-carboxamide]
peak of Cl- current elicited by UTP (short-circuit current) [1]: significantly enhanced
concentrations at which effective / active, dose-response by HS-YFP assay [2, 5]: 10 µM
potentiation of the effect of UTP on TMEM16A [2]: significantly potentiated
potentiation of Ca2+ mobilization elicited by UTP, R269W mutant [3]: marked potentiation
potentiation of SLIGR-NH2 stimulus (Ca2+ mobilization), HEKR1 cells [4]: effective as potentiators

OCc1ccccc1CN(Cc1ccnc(N2CCCC2)n1)c1ccc(F)cc1 [ARN4550, [2-[[4-Fluoro-N-[(2-pyrrolidin-1-ylpyrimidin-4-yl)methyl]anilino]methyl]phenyl]methanol]
peak of Cl- current elicited by UTP (short-circuit current) [1]: significantly enhanced
concentrations at which effective / active, dose-response by HS-YFP assay [2, 5]: 10 µM
potentiation of the effect of UTP on TMEM16A [2]: significantly potentiated
potentiation of Ca2+ mobilization elicited by UTP, R269W mutant [3]: also effective although less than ARN11391
potentiation of SLIGR-NH2 stimulus (Ca2+ mobilization), HEKR1 cells [4]: effective as potentiators
